Test results: US20130331326A1, “METHOD OF INDUCING HEMATOPOIETIC RECONSTRUCTION” (DUKE UNIVERSITY, priority 2011, published 2013)
“Also recorded” adds a separate entry of the source.

What was measured:
[1] = test system: BM hematopoietic stem and progenitor cells; experiment: Hematopoietic regeneration in C57B16 mice after 700 cGy TBI (progenitor assays, competitive repopulation); assay type: in vivo, mouse
Method: (§1) BM cells were collected into PBS (Cellgro, Manassas, Va.) with 10% fetal bovine serum (Hyclone, Logan, Utah) and 1% penicillin/streptomycin (GIBCO, Grand Island, N.Y.). Viable BM cells were quantified using Trypan Blue Stain (Lonza, Basel, Switzerland) to exclude apoptotic and dead cells. Cells were then incubated with anti-c-kit, anti-Sca-1, anti-lineage cocktail, anti-CD41, anti-CD48, and anti-CD150 antibodies (Biolegend and eBiosciences, San Diego, Calif.; BD, San Jose, Calif.) to measure ckit^+sca-1^+lin^− (KSL) progenitor cells or CD150′CD41^−CD48^−KSL (SLAM/KSL) as previously described (Kiel et al, Cell 121:1109-1121 (2005)). Colony forming cells (CFCs) and CFU-S12 assays were also performed to measure functional hematopoietic stem/progenitor cell content. For CFCs, either whole BM or cultured lineage−cells, or KSL cells were plated onto methylcellulose (StemCell Technologies, Vancouver, BC, Canada), and colonies were scored on day 14. 1×10^5 BM or 2×10^5 cells were collected from donor mice and injected via tail vein into recipient C57B16 mice that had been given 950 cGy TBI. At day +12 post-injection, spleens from recipient mice were harvested and stained with Bouin's fixative solution (Ricca Chemical Company, Arlington, Tex.), and colonies were counted as previously described (Till and MeRadiat. Res. 14:213-222 (1961)). Complete blood counts were performed on a HemaVet 950 (Drew Scientific, Dallas, Tex.).
(§2) Competitive repopulation assays were also performed using donor C57B16 mice (CD45.2^+) that had been irradiated with 700 cGy TBI and gavaged daily with 10 μg/G erlotinib (Genentech, San Francisco, Calif.) or 150 μl water beginning on day 0 and continued through day +14. Donor BM cells were injected via tail vein into recipient B6.SJL mice (CD45.1^+) at a dose of 5×10^5 cells with a competing dose of host 1×10^5 BM MNCs. Tie2Cre;Bak1^−/−;Bax^FL/− mice were gavaged daily with 10 μg/G erlotinib or water starting day −3 and given 300 cGy TBI on day 0. Erlotinib administration continued until the timepoint of donor BM cell collection and analysis. Tie2Cre;Bak1^−/−;Bax^FL/− BM cells were injected via tail vein into recipient CD45.1^+ mice at a cell dose of 3×10^5 cells with a competing dose of host 1×10^5 CD45.1^+ cells. Multilineage hematopoietic reconstitution was measured in the PB of recipient mice by flow cytometry at 4, 8, and 12 weeks post-transplant. For survival studies with erlotinib administration, C57B16 mice were exposed to 700 cGy and then given 10 μg/G erlotinib or water starting day −3 and continuing daily through day +14.
Ten micrometer sections were cut using they CryoJane tape system (Instrumedics Inc, Hackensack, N.J., USA). Femurs were stained with hematoxylin and eosin or anti-mouse endothelial cell antibody (MECA-32) as previously described (Salter et al, Blood 113:2104-2107 (2009)) to assess BM cellularity and the BM vasculature after irradiation. Images were obtained using an Axiovert 200 microscope (Carl Zeiss Microscopy, Thornwood, N.Y.) or a Leica SP5 confocal microscope (Leica Microsystems Inc, Buffalo Grove, Ill.). Adobe Photoshop software (version 9.0.2, Adobe Systems, San JoSe, Calif.) was used to quantify positive signal as a measure of spatial distribution in the fields (Lehr et al, J. Histochem. Cytochem. 45:1559-1565 (1997), Lehr et al, J. Histochem. Cytochem. 47:119-126 (1999)).

[2] = test system: BM HSC and progenitor cells; experiment: Erlotinib pre-treatment of Tie2Cre;Bak1-/-;BaxFl/- mice, 300 cGy TBI, BM HSC and progenitor cell content; assay type: in vivo, mouse
Method: (§3) FIGS. 5A-5D. (FIG. 5A) Schematic diagram of irradiation and treatment of Tie2Cre;Bak1^−/−;Bax^Fl/− mice with erlotinib or water starting 3 days prior to TBI with evaluation of BM progenitor cell content and HSC repopulating capacity via competitive transplantation at +2 hours after TBI. […] A Student's 2-tailed t-test was used for all statistical analyses.
as §2

BM lin- cells = experiment: Culture of BM lin- cells from VavCre;EGFRfl/fl or VavCre;EGFR+/+ mice with erlotinib; assay type: cell-based, mouse; conditions: TSF + 10 uM erlotinib, 72 hours
Method: Cell apoptosis and necrosis were analyzed by flow cytometry according to manufacturer's protocols with Annexin V-FITC and 7-AAD staining (BD, San Jose, Calif.). […] Cells were fixed and permeabilized with Fix Buffer I and Perm Buffer III (BD), and then stained with mouse anti-phospho-AKT-S473 PE (BD) or isotype control. Cell cycle analysis was performed by flow cytometric analysis modified from previous reports (Jordan et al, Exp. Hematol. 24:1347-1355 (1996), Chute et al, Hum. Gene Ther. 11:2515-2528 (2000), Sungartz et al, Blood 119:1308-1309 (2012)). Briefly, cells were fixed and permeabilized with 0.25% Saponin (Calbiochem, La Jolla, Calif.), 2.5% paraformaldehyde, 2% FBS in 1×PBS, and then labeled with Ki67-FITC and 7-AAD (BD). BM lin^− cells from VavCre;EGFR^+/+ or VavCre;EGER^fl/fl were cultured with TSF or TSF+10 μM erlotinib, or TSF following 300 cGy for 72 hours, and then collected for total cell counts and CFCs analysis.

C57B16 mice = experiment: Survival of C57B16 mice after 700 cGy TBI; assay type: in vivo, mouse
EGFR = EGFR phosphorylation in BM KSL cells of erlotinib-treated Tie2Cre;Bak1-/-;BaxFl/- mice; assay type: in vivo, mouse; conditions: erlotinib-treated Tie2Cre;Bak1-/-;BaxFl/- mice vs water
Method: as §3

BM KSL cells = experiment: Culture of 300 cGy-irradiated BM KSL cells with BM ECs or TSF cytokines; CFC and CFU-S12 recovery; assay type: cell-based, mouse; conditions: screen of candidate proteins from cytokine array; data not shown
Method: as §1, with “Tex.). […]” for “Tex.).”

[3] = 700 cGy TBI, erlotinib 10 ug/G oral gavage daily through day +14, vs water

Molecule: C#Cc1cccc(Nc2ncnc3cc(OCCOC)c(OCCOC)cc23)c1 [erlotinib]
- HSC pool at day +14 post-TBI by competitive repopulation assay ([1]; 700 cGy TBI, erlotinib 10 ug/G oral gavage daily through day +14): essentially absent
- BM CFCs and CFU-S12 at day +14 [1, 3]: significantly reduced; also recorded: persistent, significant depletion
- BM cellularity at day +14 [1, 3]: persistent BM hypoplasia
- BM HSCs and progenitor cells at day +7 post-TBI ([1]; 700 cGy TBI, erlotinib 10 ug/G oral gavage daily, same in control mice, data not shown): depletion of BM HSCs and progenitor cells
- short-term and longer-term HSCs (4 week through 12 week donor cell engraftment) ([1]; 700 cGy TBI, erlotinib-treated donors vs control): marked reduction
- hematopoietic reconstitution following total body irradiation ([1]; Example 1, administration of erlotinib to mice): marked delay
- engraftment of myeloid cells, B cells and T cells at 12 weeks post-transplant ([2]; BM from erlotinib-treated Tie2Cre;Bak1-/-;BaxFl/- mice vs irradiated control): reduced engraftment
- BM KSL cells and CFU-S12 following TBI ([2]; erlotinib from 3 days prior to 300 cGy TBI, +2 hours after irradiation, vs water): decreased BM KSL cells and decreased BM CFU-S12 content; also recorded: significantly decreased
- decreased HSC content (4- to 12-week engraftment in competitively transplanted recipients) ([2]; erlotinib-treated, 300 cGy irradiated Tie2Cre;Bak1-/-;BaxFl/- donors vs water): more than 20 fold
- total cells and CFCs (BM lin- cells; EGFR+/+ BM lin- cells): decreased yield in total cells and CFCs; also recorded: significantly less total cells and CFCs
- total cell expansion or CFC production (BM lin- cells; EGFRfl/fl BM lin- cells, vs cytokines alone): no significant effect
- mice that survived beyond day +27 (C57B16 mice; 10 ug/G erlotinib oral gavage from 3 days prior to TBI for 14 days post-irradiation, water controls 53% at day +30): 0 of 15
- mice that died by day +27 (C57B16 mice; 10 ug/G erlotinib via gavage from 3 days prior to TBI until day +14): 15 of 15
- EGFR-phosphorylation in BM KSL cells (EGFR): decrease in EGFR-phosphorylation

B1: IL17: candidate cytokine from BM serum array screened on irradiated BM KSL cells (protein, UniProt Q62386 26-158, looked up)
Interleukin-17A: AAIIPQSSACPNTEAKDFLQNVKVNLKVFNSLGAKVSSRRPSDYLNRSTSPWTLHRNEDPDRYPSVIWEAQCRHQRCVNAEGKLDHHMNSVLIQQEILVLKREPESCPFTFRVEKMLVGVGCTCVASIVRQAA
- modulation of the activity of FL/- ECs or FL/+ ECs in promoting BM KSL cell recovery after irradiation (BM KSL cells): none modulated the activity
- recovery of BM KSL cells in vitro following irradiation (BM KSL cells): none of these proteins significantly altered the recovery

B2: IL5: candidate cytokine from BM serum array screened on irradiated BM KSL cells (protein, UniProt P04401 21-133, looked up)
Interleukin-5: MEIPMSTVVKETLTQLSAHRALLTSNETMRLPVPTHKNHQLCIGEIFQGLDILKNQTVRGGTVEMLFQNLSLIKKYIDRQKEKCGEERRRTRQFLDYLQEFLGVMSTEWAMEG
- modulation of the activity of FL/- ECs or FL/+ ECs in promoting BM KSL cell recovery after irradiation (BM KSL cells): none modulated the activity
- recovery of BM KSL cells in vitro following irradiation (BM KSL cells): none of these proteins significantly altered the recovery

B3: KC: keratinocyte-derived chemokine, candidate protein screened on irradiated BM KSL cells (protein, UniProt P12850 25-96, looked up)
Growth-regulated alpha protein: APIANELRCQCLQTMAGIHLKNIQSLKVLPSGPHCTQTEVIATLKNGREACLDPEAPLVQKIVQKMLKGVPK
- modulation of the activity of FL/- ECs or FL/+ ECs in promoting BM KSL cell recovery after irradiation (BM KSL cells): none modulated the activity
- recovery of BM KSL cells in vitro following irradiation (BM KSL cells): none of these proteins significantly altered the recovery

B4: IL17f: candidate cytokine from BM serum array screened on irradiated BM KSL cells (protein, UniProt Q7TNI7 29-161, looked up)
Interleukin-17F: RKNPKAGVPALQKAGNCPPLEDNTVRVDIRIFNQNQGISVPREFQNRSSSPWDYNITRDPHRFPSEIAEAQCRHSGCINAQGQEDSTMNSVAIQQEILVLRREPQGCSNSFRLEKMLLKVGCTCVKPIVHQAA
- modulation of the activity of FL/- ECs or FL/+ ECs in promoting BM KSL cell recovery after irradiation (BM KSL cells): none modulated the activity
- recovery of BM KSL cells in vitro following irradiation (BM KSL cells): none of these proteins significantly altered the recovery
